Reference: US20250368636A1, “NOVEL HETEROCYCLIC COMPOUND, SALT THEREOF, AND L[…] COMPOSITION” (The University of Electro-Communications, priority 2022, published 2025)

Target: natural firefly luciferase (Fluc) (Photinus pyralis, UniProt P08659)
Experiment: Measurement of emission spectrum with natural firefly luciferase, ATP magnesium salt and luminescent substrate
Type: biochemical
Conditions: 100 μM substrate solution, KPB pH 8.0, Fluc 1 mg/mL, 10 mM ATP magnesium salt, measured for 180 seconds
Protocol: The emission spectra were measured using the luminescent substrates represented by the structural formulas (1-1) to (1-10) synthesized as described above and the luminescent substrate represented by the structural formula (a) below. The luminescent substrate represented by the structural formula (a) was prepared according to “Synthesis of Luminescent Substrate C” in WO 2021/193069 A1 (PTL 4).
Specifically, 5 μL of 500 mM potassium phosphate buffer (KPB, pH 8.0), 5 μL of a 100 μM solution of each luminescent substrate, 5 µL of a 1 mg/mL solution of natural firefly luciferase (Fluc), and 10 μL of a 10 mM ATP magnesium salt solution were mixed, and the emission spectrum was measured for 180 seconds using a luminescence measurement device (AB-1850 manufactured by ATTO Corporation). However, the substrate concentration for the luminescent substrate represented by the structural formula (a) was set to 1 mM, and the substrate concentration for the luminescent substrate represented by the structural formula (1-6) was set to 10 mM. Note that FIGS. 1 to 3 illustrate emission spectra normalized so that the maximum emission intensity was 1.

Chain of natural firefly luciferase (Fluc) (P08659 whole entry): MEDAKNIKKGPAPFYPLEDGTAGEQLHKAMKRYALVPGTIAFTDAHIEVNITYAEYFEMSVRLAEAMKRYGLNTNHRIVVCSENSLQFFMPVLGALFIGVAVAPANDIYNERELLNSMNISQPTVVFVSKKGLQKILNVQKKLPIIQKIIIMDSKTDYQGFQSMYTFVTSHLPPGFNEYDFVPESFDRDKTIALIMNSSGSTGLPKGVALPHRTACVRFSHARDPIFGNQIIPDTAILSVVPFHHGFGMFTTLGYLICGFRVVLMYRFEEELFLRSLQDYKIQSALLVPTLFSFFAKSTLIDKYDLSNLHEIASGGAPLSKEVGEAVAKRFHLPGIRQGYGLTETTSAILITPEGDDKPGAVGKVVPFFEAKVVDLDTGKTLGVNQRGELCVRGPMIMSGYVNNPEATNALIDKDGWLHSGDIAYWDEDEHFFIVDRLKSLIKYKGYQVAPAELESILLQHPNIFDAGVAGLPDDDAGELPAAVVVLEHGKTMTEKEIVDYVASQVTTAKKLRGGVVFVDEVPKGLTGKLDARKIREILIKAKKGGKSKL

Row | Structure (SMILES) | Maximum emission wavelength for each substrate (λmax) [nm]
1 | O=C(O)[C@H]1CSC(c2ccc(/C=C/c3ccc[nH]3)cc2)=N1 [Compound of structural formula (1-1)] | 640
2 | O=C(O)[C@H]1CSC(c2ccc(/C=C/c3ccc[nH]3)cn2)=N1 [Compound of structural formula (1-2)] | 660
3 | Cn1cccc1/C=C/c1ccc(C2=N[C@@H](C(=O)O)CS2)cc1 [Compound of structural formula (1-3)] | 640
4 | Cn1cccc1/C=C/c1ccc(C2=N[C@@H](C(=O)O)CS2)nc1 [Compound of structural formula (1-4)] | 660
5 | CN(C)c1ncc(/C=C/c2ccc(C3=N[C@@H](C(=O)O)CS3)nc2)s1 [Compound of structural formula (1-7)] | 710
6 | CN(C)c1ncc(/C=C/c2ccc(C3=N[C@@H](C(=O)O)CS3)cc2)s1 [Compound of structural formula (1-8)] | 680
7 | CN(C)c1cnc(/C=C/c2ccc(C3=N[C@@H](C(=O)O)CS3)nc2)s1 [Compound of structural formula (1-9)] | 760
8 | CN(C)c1cnc(/C=C/c2ccc(C3=N[C@@H](C(=O)O)CS3)cn2)s1 [Compound of structural formula (1-10)] | 730
